# Assay results taken from patent US4730068A, “Tumor retarding (1,2-diphenyl-ethylenediamine)-platinum(II)-complexes” (Asta-Werke Aktiengesellschaft, priority 1985, dated 1988).
# Assays:
# [1] = test system: DMBA-induced hormone dependent rat mammary carcinoma; experiment: DMBA-induced hormone dependent mammary carcinoma of the rat; format: in vivo; conditions: 3×6.5 mg/kg body weight/week
# Description: Mouse leukemia P388, hormone independent human breast cancer cell line MDA-MB 231, hormone dependent human breast cancer cell line MCF7, hormone dependent mouse mammary carcinoma MXT, DMBA induced hormone dependent rat mammary carcinoma (DMBA is dimethylbenz[a]-anthracene).
# For example on the mammary cancer of the rat, which was induced by 7, 12-dimethylbenz [a]-anthracene (DMBA), with the compound of Example 18 at a dosage of 3×6.5 mg/kg body weight/week there was determined with 88% of the tumors a complete remission. In the testing on the hormone independent human mammary tumor cell line MDA-MB 231 the compounds of the invention show for example in vitro in concentrations between 10^-5 and 10^-7 moles/liter a 50% inhibition of the growth of this cell line. The inhibition of [^3 H]-thymidine incorporation is of the same order of magnitude. The compounds of the invention act on the lymphocytic leukemia P388 (mouse) for example in dosages between 10 and 50 mg/kg (intraperitoneal application).
# water solubility = format: physicochemical
Compound,tumors with complete remission [1] [%],solubility in water (water solubility)
"NC(c1c(Cl)cc(O)cc1Cl)C(N)c1c(Cl)cc(O)cc1Cl.[Cl-].[Cl-].[Pt+2] (stereo not drawn) [Example 18, meso-1,2-bis(2,6-dichloro-4-hydroxyphenyl)-ethylenediamine-dichloro-platinum(II)]",88,–
"Diaquo-meso-1,2-bis(2,6-dichloro-4-hydroxyphenyl)-ethylene-diamine-platinum(II)-sulfate [Example 34]",–,soluble in water
